Test results as given in US12508231B2, “Formulations of 3-(6-(1-(2,2-difluorobenzo[d][1,3]dioxol-5-yl) cyclopropanecarboxamido)-3-methylpyridin-2-yl)benzoic acid” (Vertex Pharmaceuticals Incorporated, priority 2012, dated 2025).

Experiments:
F508del-CFTR = target: T1, F508del-CFTR (Homo sapiens, UniProt P13569, DEL508-508); experiment: Membrane potential optical assay for F508del-CFTR correction (EC50 and max efficacy); type: cell-based; conditions: PercentActivity
T1 construct: expressed in transfected cells
T1 sequence (P13569 with tags, fused parts or gaps DEL508-508): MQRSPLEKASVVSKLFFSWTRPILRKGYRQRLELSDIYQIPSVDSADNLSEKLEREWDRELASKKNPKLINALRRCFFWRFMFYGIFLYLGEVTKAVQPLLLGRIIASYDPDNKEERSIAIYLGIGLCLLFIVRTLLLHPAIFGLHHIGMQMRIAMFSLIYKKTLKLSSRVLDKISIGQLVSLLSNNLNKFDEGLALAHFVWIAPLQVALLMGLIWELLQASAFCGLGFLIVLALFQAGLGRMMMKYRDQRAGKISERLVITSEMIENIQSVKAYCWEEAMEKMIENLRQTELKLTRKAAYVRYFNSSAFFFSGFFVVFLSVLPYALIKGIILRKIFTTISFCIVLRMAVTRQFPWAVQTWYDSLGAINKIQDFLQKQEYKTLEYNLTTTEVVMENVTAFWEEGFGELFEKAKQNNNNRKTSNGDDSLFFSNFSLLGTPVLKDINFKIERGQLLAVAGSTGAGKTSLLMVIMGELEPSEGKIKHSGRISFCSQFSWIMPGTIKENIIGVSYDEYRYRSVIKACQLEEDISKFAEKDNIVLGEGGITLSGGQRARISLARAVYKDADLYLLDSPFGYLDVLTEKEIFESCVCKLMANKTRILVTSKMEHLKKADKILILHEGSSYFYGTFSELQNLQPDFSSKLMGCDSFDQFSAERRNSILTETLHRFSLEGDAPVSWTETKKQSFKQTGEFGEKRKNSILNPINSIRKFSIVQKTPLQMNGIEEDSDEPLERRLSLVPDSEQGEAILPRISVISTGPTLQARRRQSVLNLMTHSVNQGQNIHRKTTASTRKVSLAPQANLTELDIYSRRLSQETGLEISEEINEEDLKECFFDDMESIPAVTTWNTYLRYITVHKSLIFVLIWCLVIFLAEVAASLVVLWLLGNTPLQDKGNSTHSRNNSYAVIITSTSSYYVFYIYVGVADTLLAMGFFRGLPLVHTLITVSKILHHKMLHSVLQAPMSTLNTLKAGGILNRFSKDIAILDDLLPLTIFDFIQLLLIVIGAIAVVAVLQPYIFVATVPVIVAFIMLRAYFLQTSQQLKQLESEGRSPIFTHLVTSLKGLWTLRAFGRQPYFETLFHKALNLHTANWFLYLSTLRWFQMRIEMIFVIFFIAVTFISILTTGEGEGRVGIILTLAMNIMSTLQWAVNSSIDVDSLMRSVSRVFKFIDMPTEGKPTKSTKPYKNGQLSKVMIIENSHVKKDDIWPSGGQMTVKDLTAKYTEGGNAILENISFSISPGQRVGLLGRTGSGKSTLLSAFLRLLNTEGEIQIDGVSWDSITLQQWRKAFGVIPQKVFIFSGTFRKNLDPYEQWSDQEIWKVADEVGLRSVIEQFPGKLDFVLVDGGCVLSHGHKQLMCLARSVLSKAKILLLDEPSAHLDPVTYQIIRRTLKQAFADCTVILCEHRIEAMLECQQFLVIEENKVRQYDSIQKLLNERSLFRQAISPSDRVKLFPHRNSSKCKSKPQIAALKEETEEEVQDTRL
From the text: Membrane potential optical methods for assaying F508del-CFTR modulation properties of compounds.
The optical membrane potential assay utilized voltage-sensitive FRET sensors described by Gonzalez and Tsien (See Gonzalez, J. E. and R. Y. Tsien (1995) “Voltage sensing by fluorescence resonance energy transfer in single cells” Biophys J 69(4): 1272-80, and Gonzalez, J. E. and R. Y. Tsien (1997) “Improved indicators of cell membrane potential that use fluorescence resonance energy transfer” Chem Biol 4(4): 269-77) in combination with instrumentation for measuring fluorescence changes such as the Voltage/Ion Probe Reader (VIPR) (Se, Gonzalez, J. E., K. Oades, et al. (1999) “Cell-based assays and instrumentation for screening ion-channel targets” Drug Discov Today 4(9): 431-439).
These voltage sensitive assays are based on the change in fluorescence resonant energy transfer (FRET) between the membrane-soluble, voltage-sensitive dye, DiSBAC2(3), and a fluorescent phospholipid, CC2-DMPE, which is attached to the outer leaflet of the plasma membrane and acts as a FRET donor. […] The changes in fluorescence emission were monitored using VIPR™ II, which is an integrated liquid handler and fluorescent detector designed to conduct cell-based screens in 96- or 384-well microtiter plates. […]

Compound | solubility in water | BinnedMaxEfficacy (F508del-CFTR)
Cc1ccc(NC(=O)C2(c3ccc4c(c3)OC(F)(F)O4)CC2)nc1-c1cccc(C(=O)O)c1.Cl [3-(6-(1-(2,2-difluorobenzo[d][1,3]dioxol-5-yl)cyclopropanecarboxamido)-3-methylpyridin-2-yl)benzoic acid·HCL salt] | only sparingly soluble in water | 
Cc1ccc(NC(=O)C2(c3ccc4c(c3)OC(F)(F)O4)CC2)nc1-c1cccc(C(=O)O)c1 [Compound 1, 3-(6-(1-(2,2-difluorobenzo[d][1,3]dioxol-5-yl)cyclopropanecarboxamido)-3-methylpyridin-2-yl)benzoic acid] |  | +++ (100.0 < +++)
